A short description of assay [1]: Competitive inhibition of rabbit muscle glycogen phosphorylase b using constant concentration of glucose-1-phosphate, glycogen and varying concentration of AMP as substrate. Format: tissue-based, Oryctolagus cuniculus, Muscle tissue.
For assay [2], the target named is T1, Glycogen phosphorylase, muscle form (Oryctolagus cuniculus, UniProt P00489).
T1 sequence (P00489 whole entry): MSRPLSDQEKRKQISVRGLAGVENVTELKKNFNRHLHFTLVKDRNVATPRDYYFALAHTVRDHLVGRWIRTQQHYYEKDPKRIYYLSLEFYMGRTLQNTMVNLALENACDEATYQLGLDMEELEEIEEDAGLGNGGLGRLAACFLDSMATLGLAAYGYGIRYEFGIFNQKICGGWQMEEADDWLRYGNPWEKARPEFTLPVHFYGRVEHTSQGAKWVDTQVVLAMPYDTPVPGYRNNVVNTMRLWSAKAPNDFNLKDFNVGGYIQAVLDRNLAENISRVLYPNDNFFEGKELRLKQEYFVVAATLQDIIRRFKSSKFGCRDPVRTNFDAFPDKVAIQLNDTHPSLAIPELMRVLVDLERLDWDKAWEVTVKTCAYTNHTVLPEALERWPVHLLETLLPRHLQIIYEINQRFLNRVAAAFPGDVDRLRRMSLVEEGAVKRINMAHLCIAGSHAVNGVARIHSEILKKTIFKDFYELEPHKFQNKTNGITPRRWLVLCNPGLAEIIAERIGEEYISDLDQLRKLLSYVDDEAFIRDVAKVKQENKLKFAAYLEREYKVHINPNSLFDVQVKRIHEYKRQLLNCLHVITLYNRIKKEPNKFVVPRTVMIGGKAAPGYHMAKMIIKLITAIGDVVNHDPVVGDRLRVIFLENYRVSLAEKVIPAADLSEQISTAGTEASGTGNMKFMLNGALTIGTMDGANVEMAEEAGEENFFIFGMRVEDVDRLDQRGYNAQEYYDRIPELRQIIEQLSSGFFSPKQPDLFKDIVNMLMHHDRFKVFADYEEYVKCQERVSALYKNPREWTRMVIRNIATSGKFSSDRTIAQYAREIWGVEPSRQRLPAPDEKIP
The experiment in a line: Inhibition of rabbit muscle glycogen phosphorylase.

Assay [3] in a line: Non-competitive inhibition of rabbit muscle glycogen phosphorylase b using constant concentration of AMP, glycogen and varying concentration of glucose-1-phosphate as substrate. Format: tissue-based, Oryctolagus cuniculus, Muscle tissue.
The target of assay [4] is T2, Glycogen phosphorylase, liver form (Homo sapiens, UniProt P06737).
T2 sequence (P06737 whole entry): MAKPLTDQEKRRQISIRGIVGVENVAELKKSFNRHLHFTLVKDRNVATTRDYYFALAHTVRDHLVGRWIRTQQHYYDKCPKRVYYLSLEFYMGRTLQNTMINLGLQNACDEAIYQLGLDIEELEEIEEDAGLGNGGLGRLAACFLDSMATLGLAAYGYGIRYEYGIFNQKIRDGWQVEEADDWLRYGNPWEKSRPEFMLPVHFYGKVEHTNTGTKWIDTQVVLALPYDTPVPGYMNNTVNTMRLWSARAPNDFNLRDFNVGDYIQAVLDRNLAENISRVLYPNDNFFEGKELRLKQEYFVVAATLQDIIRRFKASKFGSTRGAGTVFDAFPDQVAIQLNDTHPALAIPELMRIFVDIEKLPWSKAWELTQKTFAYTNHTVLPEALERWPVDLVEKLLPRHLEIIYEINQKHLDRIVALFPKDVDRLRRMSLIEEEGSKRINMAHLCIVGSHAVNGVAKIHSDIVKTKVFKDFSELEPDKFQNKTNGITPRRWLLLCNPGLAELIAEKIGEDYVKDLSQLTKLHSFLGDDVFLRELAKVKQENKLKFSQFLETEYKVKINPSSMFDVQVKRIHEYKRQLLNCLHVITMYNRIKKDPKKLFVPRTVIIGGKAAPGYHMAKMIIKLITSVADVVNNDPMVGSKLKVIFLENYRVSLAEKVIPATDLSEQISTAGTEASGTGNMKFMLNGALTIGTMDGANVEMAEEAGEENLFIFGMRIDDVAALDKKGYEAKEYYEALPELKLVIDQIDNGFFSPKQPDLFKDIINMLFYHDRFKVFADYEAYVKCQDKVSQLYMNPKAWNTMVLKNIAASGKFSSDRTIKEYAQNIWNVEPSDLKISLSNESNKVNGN
The experiment in a line: Inhibition of human liver glycogen phosphorylase.

With `O=C(O)C[C@H](OC(=O)/C=C/c1ccc(O)cc1)[C@@H](OC(=O)/C=C/c1ccc(O)cc1)C(=O)O`, the Ki was 0.2 µM in assay [1], 0.46 µM in assay [2] and 5.47 µM in assay [3]. Besides, the IC50 in assay [4] was 2.5 µM.
As to `O=C(/C=C/c1ccc(O)cc1)O[C@@H](C(=O)O)[C@@H](OC(=O)/C=C/c1ccc(O)cc1)C(=O)O`, the Ki in assay [1] worked out at 11.3 µM; in assay [3], 300 µM.
The like results for `O=C(/C=C/c1ccc(O)cc1)O[C@H](C(=O)O)[C@@H](OC(=O)/C=C/c1ccc(O)cc1)C(=O)O` were, in that order, 5.68 µM and 71.4 µM.
With `O=C(/C=C/c1ccc(O)cc1)O[C@H](C(=O)O)[C@H](OC(=O)/C=C/c1ccc(O)cc1)C(=O)O`, the Ki worked out at 26.4 µM in assay [1] and 109 µM in assay [3].

What is called Ki is the dissociation constant of the complex between target and ligand, obtained from inhibition or displacement. The low end stands for higher affinity, the high end for lower affinity. Usually IC50 stands for the concentration that inhibits the measured activity by half. Lower therefore signals inhibition by little substance.

(Values after ChEMBL document CHEMBL2331418, “Synthesis of tartaric acid analogues of FR258900 and their evaluation as glycogen phosphorylase inhibitors” (Bioorg Med Chem Lett, 2013).)
